Reference: patent US8663646B2, “P53 peptide vaccine” (priority 2007, dated 2014)

Tests used:
HLA-A*0201 [1] = biological target: T1, HLA-A*0201 (Homo sapiens, UniProt P04439, D140Y/D185E/D98H/E176V/E277Q/G131W/G231S/I119V/I121R/I166T/I218V/L300P/L318F/N151K/N90K/P208A/P217A/Q86G/Q94H/R138H/R169H/T345S); test: Peptide stabilization for HLA-A*0201; format: binding; settings: HLA-A*0201; p53 peptides
proteasome = test: Proteasome processing, summarised over proteasome types (Table 5); format: biochemical; settings: 30 residue long precursor peptides
Description: In the context of the invention, “being inefficiently processed by a proteasome” preferably means that within the first hour of digestion by a proteasome less than 1% of total digested peptide is found. The processing by a proteasome is preferably assessed by incubating a purified proteasome, more preferably a human proteasome with a peptide comprising the potential CTL epitope (30 amino acid length approximately) in a proteasome digestion buffer during at least one hour at 37° C. The reaction is subsequently stopped by adding trifluoroacetic acid. Analysis of the digested peptides is performed with electrospray ionization mass spectrometry (see example 1). Even more preferably, the human proteasome is an immunoproteasome from B-LCL JY cells (Kessler J H et al. 2001).
20S immuno-proteasomes were purified from a mouse B-cell line (RMA) and a human B-LCL cell line (JY) and 20S household proteasomes were purified from human tumor cell line (HeLa) as described (Kessler J H et al 2001). To assess kinetics, digestions were performed with different incubation periods as indicated. Briefly, peptides containing the (potential) CTL epitopes (30 mers, 20 μg) were incubated with 1 μg of purified proteasome at 37° C. for 1 h, 4 h and 24 h in 300 μl proteasome digestion buffer, trifluoroacetic acid (30 μl) was added to stop the digestion and samples were stored at −20° C. before mass spectrometric analysis. Electrospray ionization mass spectrometry was performed on a hybrid quadrupole time-of-flight mass spectromter, a Q-TOF (Micromass), equipped with an on-line nanoelectrospray interface with an approximate flow rate of […] as described (Kessler J H et al 2001). The peaks in the mass spectrum were searched in the digested precursor peptide using the Biolynx/proteins software (Micromass) supplied with the mass spectrometer. The intensity of the peaks in the mass spectra was used to establish the relative amounts of peptides generated after proteasome digestion. The relative amounts of the peptides are given as a percentage of the total amount of peptide digested by the proteasome at the indicated incubation time. Major cleavage sites are defined as more than >1% of total digested peptide within the first hour.

HLA-A*0201 [2] = biological target: T1, HLA-A*0201; settings: binding capacity previously determined; cited from earlier work

CSCC[C@H](NC(=O)[C@@H](N)CCCNC(=N)N)C(=O)N1CCC[C@H]1C(=O)N[C@@H](CCC(=O)O)C(=O)N[C@@H](C)C(=O)N[C@@H](C)C(=O)N1CCC[C@H]1C(=O)N1CCC[C@H]1C(=O)N[C@H](C(=O)O)C(C)C [p53 65-73]
Peptide Binding Stability (HLA-A*0201 [1]): 6 h | generation / processing by household and immunoproteasomes, in words (proteasome): not/inefficiently processed | Peptide Binding Affinity (HLA-A*0201 [2]): high
